Laboratory results taken from patent publication US20170367390A1, “USE OF ELLAGIC ACID DIHYDRATE IN FOOD PRODUCTS AND NUTRACEUTICALS” (HALO LIFE SCIENCE, LLC, priority 2014, published 2017).

Columns and labels:
[1] = Saturation of test compound in 100% DMSO; assay type: physicochemical
Description: General Procedure. For Examples 2 through 7, all test compounds of interest were initially dissolved in 100% DMSO. Estimated saturation occurred at approximately 4 mM for ellagic acid dihydrate. The saturated solution was diluted 1:10 in 1×PBS; creating a 100× stock solution of 400 μM ellagic acid dihydrate. Working concentrations (1×), 4 μM, and more dilute concentrations of ellagic acid dihydrate were created by 1:10 dilutions into 0.1% DMSO. The resulting six dilutions ranged from 4 μM to 0.04 nM. Dose curves were analyzed using either Harmony software on the Operetta (Perkin Elmer) or Excel (Microsoft) for flow cytometry, which was performed on a BD Accuri (BD Biosciences).

glucose oxidase = glucose oxidase (Aspergillus niger, UniProt P13006); assay: Direct interaction with glucose, glucose oxidase based glucometer on serum; assay type: biochemical; details: incubated with serum at room temperature five minutes or overnight at 37° C.
Description: Ellagic acid dihydrate was analyzed for direct interaction with glucose. A glucose oxidase based glucometer was used to measure serum glucose. Ellagic acid dihydrate was incubated with serum at room temperature for five minutes or overnight at 37° C. […] Ellagic acid dihydrate is not believed to directly interact with glucose.

MEF cells = assay: Glucose uptake, 2-NBDG labeling, high-content imaging (Operetta), MEFs; assay type: cell-based, mouse
Description: Increased glucose uptake was indicated as increasing signal of 2-NBDG ([…]) in cells. Glucose uptake assays were carried out in a final incubation volume of 50 μl consisting of, 2-NBDG), (100 μM) in 1× Phosphate Buffered Saline w/Ca+, Mg+ (PBS++). The same buffer was used for washing cells. Insulin was used as a positive control. All testing compounds were prepared in 10% DMSO and diluted 1:100 for a final concentration of 0.1% DMSO (vehicle). Cells were culture to 70-90% confluence and then washed twice with PBS++. Cells were incubated for 30 minutes at 37° C. in PBS++. Nuclear stain, HCS CellMask stain (blue, Invitrogen), and/or testing compounds (ellagic acid dihydrate, insulin, or vehicle) were added. Cells were incubated for 30 min at 37° C. Cells were washed twice with PBS++ and incubated with 2-NBDG for 10 minutes. Cells were washed thrice with PBS++ and then imaged in PBS++. Alternatively, the final PBS wash was removed and cells were incubated with Accutase (Invitrogen) for 10 min at 37° C., neutralized with 10% FBS in 1×PBS, and analyzed by flow cytometry. An additional experiment was performed to measure glucose uptake in C2Cl2 cells exposed to metformin, insulin and ellagic acid dihydrate 2 (batch 2). FIG. 5C. Glucose uptake in ellagic acid dihydrate treated cell culture was measured and compared to glucose uptake under insulin or ellagic acid treatment. […] Flow cytometry results were run in triplicate with 1000 cells per batch.

GLUT4-GFP = assay: Localization of glucose transporter GLUT4-GFP, time-lapse confocal microscopy in C2C12; assay type: cell-based, mouse
Description: Induction of glucose transporter, GLUT-4, in ellagic acid dihydrate treated cell cultures was studied. Cellular assays were performed using mouse myoblast C2C12 cells. The cells were infected with a fusion glucose transporter 4 green fluorescent protein (GLUT4-GFP). This protein allows the visualization of GLUT4 by imaging the GFP under fluorescent time-lapse microscopy. Frames were compiled to produce time-lapse images of cellular changes with no treatment or treatment with insulin. The localization of glucose transporter (GLUT4-GFP) was performed in final incubation volume of 505 μL, consisting of 500 μl of Hank's Buffer (Invitrogen) and 5 μl of tested compounds. Insulin was used as positive controls and vehicle (0.1% DMSO) as the negative control. All test compounds were prepared in 10% DMSO and diluted 1:100 for a final concentration of 0.1% DMSO (vehicle). The cells were rinsed in Hank's Buffer thrice and then incubated in Hank's Buffer at 37° C. for one hour. The test compounds were added (ellagic acid dihydrate, insulin, or vehicle) and the cells were imaged using laser-confocal microscopy (Leica TCS SP5 X) with FITC fluorescent filters to determine changes in GLUT4-GFP localization. Time-lapse images (TIF) were collected and post-processed using Image-J (NIH) for video construction.

Activity level in mice = assay type: in vivo, mouse; details: predicted from in vitro data of Example 5
Description: Activity levels in mice treated with ellagic acid dihydrate may be quantified by several procedures, such as those outlined in Turri, M. et al.; QTL Analysis Identifies Multiple Behavioral Dimensions in Ethological Tests of Anxiety in Laboratory Mice; Current Biology; 2001; 11(10): 725-734. Two examples of procedures taught therein follows. Gross Locomotor Activity in Home Cage: Mice are caged singly several days prior to home cage activity monitoring and subsequent testing. Activity in home cages are measured during the first 2 hours of the dark cycle on two consecutive days. Two infrared photo emitter-detector pairs, located outside the clear plastic home cage that divide the cage into three equal areas, are used to record gross locomotor activity on the floor of the home cage as the animal breaks the photo beams. The beam-break activity score consists of the square root of the number of beam breaks for each detector summed across the two test days. Magnitude of Activity in Home Cage: Mice are caged singly several days prior to home cage activity monitoring and subsequent testing. Activity in home cages are measured during the first 2 hours of the dark cycle on two consecutive days. An infrared motion detector located above the top of the home cage is employed to converts all motion sensed within the home cage into arbitrary units, based on the magnitude of activity detected.

glucose oxidase, sequence (P13006 17-605, species assumed): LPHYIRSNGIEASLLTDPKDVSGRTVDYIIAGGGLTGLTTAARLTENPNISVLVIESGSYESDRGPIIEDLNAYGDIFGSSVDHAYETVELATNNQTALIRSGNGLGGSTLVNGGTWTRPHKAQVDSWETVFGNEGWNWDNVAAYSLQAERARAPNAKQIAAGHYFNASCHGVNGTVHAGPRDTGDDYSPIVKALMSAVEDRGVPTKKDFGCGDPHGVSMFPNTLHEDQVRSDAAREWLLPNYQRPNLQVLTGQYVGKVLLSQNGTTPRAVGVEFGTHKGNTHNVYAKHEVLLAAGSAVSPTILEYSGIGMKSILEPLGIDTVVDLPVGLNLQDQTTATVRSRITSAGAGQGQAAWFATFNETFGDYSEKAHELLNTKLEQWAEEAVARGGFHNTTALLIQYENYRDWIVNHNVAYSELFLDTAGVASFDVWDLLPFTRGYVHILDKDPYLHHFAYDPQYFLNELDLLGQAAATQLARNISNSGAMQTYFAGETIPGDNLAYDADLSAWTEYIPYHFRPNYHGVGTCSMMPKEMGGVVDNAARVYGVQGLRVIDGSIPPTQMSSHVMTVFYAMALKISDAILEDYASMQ

## O.O.O=c1oc2c(O)c(O)cc3c(=O)oc4c(O)c(O)cc1c4c23 [ellagic acid dihydrate]
[1]
  Estimated saturation: approximately 4 mM
Glucose oxidase
  inhibition of the glucose oxidase reaction: no inhibition of the glucose oxidase reaction was observed
MEF cells
  dose effect for increasing glucose uptake: dose effect for increasing glucose uptake
MEF cells; versus vehicle (Neg, 0.1% DMSO)
  glucose uptake (2-NBDG signal): significantly greater than vehicle treated (Neg, 0.1% DMSO) or Insulin treated cells
GLUT4-GFP; C2C12, 4000 nM
  timing of GLUT4-GFP/membrane process compared with insulin: slightly delayed
GLUT4-GFP; C2C12, 4000 nM exposure
  GLUT4-GFP localization: decrease in nuclear GLUT4-GFP
  ruffling of filopodia at the surface of the cell: rapid ruffling of filopodia at the surface of the cell
Activity level in mice
  activity level compared to mice treated with ellagic acid: significantly greater activity level
